Assay results published in the supplement of paper PMC8633005.

Legend:
Assay in all cases: drug sensitivity score (DSS) (DSS (unitless, 0-50 scale)); higher = more sensitive (stronger viability inhibition); extreme values may be limits of the assay
Conditions in all cases: 72 h; culture: 2D
[1] = system: FM-MEL-2
Summary of the method: (§1)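 Viability was measured by CellTiter-Glo luminescence after 72 h at 37 °C in 384-well plates holding a 527-compound oncology library, with patient-derived melanoma cultures (1000–1500 cells per well) and melanoma cell lines grown in 2D. Every compound was tested at five concentrations spanning a 10,000-fold range. The drug sensitivity score, a modified area under the curve, came from dose-response curves fitted with in-house Breeze software.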

[2] = system: Bowes
Summary of the method: as §1

[3] = system: WM852
Summary of the method: as §1

[4] = system: FM-MEL-6
Summary of the method: as §1

[5] = system: SK-MEL-2
Summary of the method: as §1

[6] = system: SK-MEL-28
Summary of the method: as §1

[7] = system: WM165
Summary of the method: as §1

[8] = system: FM-MEL-3
Summary of the method: as §1

Cn1ncc(Cl)c1-c1cc(C(=O)N[C@H](CN)Cc2ccc(F)c(F)c2)oc1Cl [Uprosertib]
drug sensitivity score [1]: 1.2
drug sensitivity score [2]: 0
drug sensitivity score [3]: 0
drug sensitivity score [4]: 0
drug sensitivity score [5]: 0
drug sensitivity score [6]: 0.5
drug sensitivity score [7]: 1.1
drug sensitivity score [8]: 0

CS(=O)(=O)c1ccc(-c2cnc(N)c(C(=O)Nc3ccccc3)n2)cc1 [VE-821]
drug sensitivity score [1]: 0
drug sensitivity score [2]: 3.1
drug sensitivity score [3]: 2.6
drug sensitivity score [4]: 0
drug sensitivity score [5]: 0
drug sensitivity score [6]: 0
drug sensitivity score [7]: 0
drug sensitivity score [8]: 1.6

O=C(O)CC1CC(c2ccccc2)=NO1 (stereo not given) [VGX-1027]
drug sensitivity score [1]: 0
drug sensitivity score [2]: 0
drug sensitivity score [3]: 0
drug sensitivity score [4]: 0
drug sensitivity score [5]: 0
drug sensitivity score [6]: 0
drug sensitivity score [7]: 0
drug sensitivity score [8]: 0

C=CC(=O)N1CC/C(=C\c2ccc(F)c([N+](=O)[O-])c2)C(=O)/C(=C/c2ccc(F)c([N+](=O)[O-])c2)C1 [VLX1570]
drug sensitivity score [1]: 7.8
drug sensitivity score [2]: 23.8
drug sensitivity score [3]: 18.8
drug sensitivity score [4]: 2.4
drug sensitivity score [5]: 14.9
drug sensitivity score [6]: 15.8
drug sensitivity score [7]: 24
drug sensitivity score [8]: 18.6

CNC(=O)c1ccccc1Nc1cc(Nc2ccc(N3CCOCC3)cc2OC)ncc1C(F)(F)F [VS-4718]
drug sensitivity score [1]: 9.2
drug sensitivity score [2]: 3
drug sensitivity score [3]: 6.7
drug sensitivity score [4]: 7.2
drug sensitivity score [5]: 6.3
drug sensitivity score [6]: 4.5
drug sensitivity score [7]: 7.8
drug sensitivity score [8]: 12.5

CCCC(CCC)C(=O)O [Valproic acid]
drug sensitivity score [1]: 0.2
drug sensitivity score [2]: 0
drug sensitivity score [3]: 0
drug sensitivity score [4]: 0
drug sensitivity score [5]: 0
drug sensitivity score [6]: 0
drug sensitivity score [7]: 0
drug sensitivity score [8]: 0.3

CCCCC(=O)OCC(=O)[C@]1(O)Cc2c(O)c3c(c(O)c2[C@@H](O[C@H]2C[C@H](NC(=O)C(F)(F)F)[C@H](O)[C@H](C)O2)C1)C(=O)c1c(OC)cccc1C3=O [Valrubicin]
drug sensitivity score [1]: 6.8
drug sensitivity score [2]: 6.4
drug sensitivity score [3]: 5.1
drug sensitivity score [4]: 9.2
drug sensitivity score [5]: 8.5
drug sensitivity score [6]: 8.3
drug sensitivity score [7]: 21.5
drug sensitivity score [8]: 7.2

COc1cc2/c(=N/c3ccc(Br)cc3F)nc[nH]c2cc1OCC1CCN(C)CC1 [Vandetanib]
drug sensitivity score [1]: 0
drug sensitivity score [2]: 1.3
drug sensitivity score [3]: 0
drug sensitivity score [4]: 0.2
drug sensitivity score [5]: 0
drug sensitivity score [6]: 0.4
drug sensitivity score [7]: 0
drug sensitivity score [8]: 0

CCc1c(C(=O)C(N)=O)c2c(OCC(=O)O)cccc2n1Cc1ccccc1 [Varespladib]
drug sensitivity score [1]: 0
drug sensitivity score [2]: 0
drug sensitivity score [3]: 0
drug sensitivity score [4]: 0
drug sensitivity score [5]: 0
drug sensitivity score [6]: 0
drug sensitivity score [7]: 0
drug sensitivity score [8]: 0

C[C@@H]1COC(Nc2ccc3ncnc(Nc4ccc(OCc5nccs5)c(Cl)c4)c3c2)=N1 [Varlitinib]
drug sensitivity score [1]: 5.7
drug sensitivity score [2]: 0
drug sensitivity score [3]: 1.7
drug sensitivity score [4]: 0
drug sensitivity score [5]: 0
drug sensitivity score [6]: 0.3
drug sensitivity score [7]: 0
drug sensitivity score [8]: 2.2

Clc1ccc(Nc2nnc(Cc3ccncc3)c3ccccc23)cc1 [Vatalanib]
drug sensitivity score [1]: 0
drug sensitivity score [2]: 0
drug sensitivity score [3]: 0
drug sensitivity score [4]: 0
drug sensitivity score [5]: 0
drug sensitivity score [6]: 0
drug sensitivity score [7]: 0
drug sensitivity score [8]: 0

C[C@]1(c2nc3c(C(N)=O)cccc3[nH]2)CCCN1 [Veliparib]
drug sensitivity score [1]: 0.7
drug sensitivity score [2]: 0
drug sensitivity score [3]: 0
drug sensitivity score [4]: 0
drug sensitivity score [5]: 0
drug sensitivity score [6]: 0.2
drug sensitivity score [7]: 0.9
drug sensitivity score [8]: 0.6

CCCS(=O)(=O)Nc1ccc(F)c(C(=O)c2c[nH]c3ncc(-c4ccc(Cl)cc4)cc23)c1F [Vemurafenib]
drug sensitivity score [1]: 0
drug sensitivity score [2]: 2.4
drug sensitivity score [3]: 0
drug sensitivity score [4]: 0
drug sensitivity score [5]: 0
drug sensitivity score [6]: 13.5
drug sensitivity score [7]: 10.2
drug sensitivity score [8]: 0

CC1(C)CCC(CN2CCN(c3ccc(C(=O)NS(=O)(=O)c4ccc(NCC5CCOCC5)c([N+](=O)[O-])c4)c(Oc4cnc5[nH]ccc5c4)c3)CC2)=C(c2ccc(Cl)cc2)C1 [Venetoclax]
drug sensitivity score [1]: 0
drug sensitivity score [2]: 0
drug sensitivity score [3]: 0
drug sensitivity score [4]: 0
drug sensitivity score [5]: 0
drug sensitivity score [6]: 0
drug sensitivity score [7]: 0
drug sensitivity score [8]: 3.6

O=C(/C=C\n1cnc(-c2cc(C(F)(F)F)cc(C(F)(F)F)c2)n1)NNc1ccccn1 [Verdinexor]
drug sensitivity score [1]: 4.2
drug sensitivity score [2]: 4.1
drug sensitivity score [3]: 2
drug sensitivity score [4]: 4
drug sensitivity score [5]: 2.3
drug sensitivity score [6]: 5
drug sensitivity score [7]: 9.3
drug sensitivity score [8]: 5.3

CCCCOc1nc(N)c2c(n1)N(Cc1cccc(CN3CCCC3)c1)CC(=O)N2 [Vesatolimod]
drug sensitivity score [1]: 0
drug sensitivity score [2]: 0
drug sensitivity score [3]: 0
drug sensitivity score [4]: 0.8
drug sensitivity score [5]: 0
drug sensitivity score [6]: 0
drug sensitivity score [7]: 0
drug sensitivity score [8]: 0

COc1cccc(-c2ccc(NC(=O)C3=C(C(=O)O)CCC3)c(F)c2)c1 [Vidofludimus]
drug sensitivity score [1]: 0
drug sensitivity score [2]: 0.4
drug sensitivity score [3]: 0
drug sensitivity score [4]: 0
drug sensitivity score [5]: 0
drug sensitivity score [6]: 0
drug sensitivity score [7]: 1.3
drug sensitivity score [8]: 0.3

CC[C@]1(O)C[C@@H]2CN(CCc3c([nH]c4ccccc34)[C@@](C(=O)OC)(c3cc4c(cc3OC)N(C)[C@H]3[C@@](O)(C(=O)OC)[C@H](OC(C)=O)[C@]5(CC)C=CCN6CC[C@]43[C@@H]65)C2)C1 [Vinblastine]
drug sensitivity score [1]: 4.5
drug sensitivity score [2]: 21.8
drug sensitivity score [3]: 13.8
drug sensitivity score [4]: 3.9
drug sensitivity score [5]: 19.3
drug sensitivity score [6]: 8.9
drug sensitivity score [7]: 19.9
drug sensitivity score [8]: 11.9

CC[C@]1(O)C[C@H]2CN(CCc3c([nH]c4ccccc34)[C@@](C(=O)OC)(c3cc4c(cc3OC)N(C=O)[C@H]3[C@@](O)(C(=O)OC)[C@H](OC(C)=O)[C@]5(CC)C=CCN6CC[C@]43[C@@H]65)C2)C1 [Vincristine]
drug sensitivity score [1]: 4.5
drug sensitivity score [2]: 18.7
drug sensitivity score [3]: 16.5
drug sensitivity score [4]: 7.6
drug sensitivity score [5]: 18.5
drug sensitivity score [6]: 10.1
drug sensitivity score [7]: 20.2
drug sensitivity score [8]: 12.6

CC[C@]12C=CCN3CC[C@@]4(c5cc([C@@]6(C(=O)OC)C[C@@H]7C[C@@H](C(C)(F)F)CN(Cc8c6[nH]c6ccccc86)C7)c(OC)cc5N(C)[C@H]4[C@@](O)(C(=O)OC)[C@@H]1OC(C)=O)[C@@H]32 [Vinflunine]
drug sensitivity score [1]: 1
drug sensitivity score [2]: 3.6
drug sensitivity score [3]: 3.5
drug sensitivity score [4]: 3.8
drug sensitivity score [5]: 2.7
drug sensitivity score [6]: 3.5
drug sensitivity score [7]: 4.6
drug sensitivity score [8]: 3.2
